Assay results taken from patent US7563882B2, “Polynucleotides encoding antibodies that bind to the C35 polypeptide” (University of Rochester, priority 2002, dated 2009).

Assays:
Mel 1700 = assay: 51Cr release, CD8+ cells stimulated with K104-V113 peptides (Example 17); format: cell-based, human; settings: target Mel 1700, effector to target 30:1, CD8+ cells 12 days in IL-2 after fourth stimulation; for Raw Chromium Values: Table 15 (repeat); for Percentage of Target Cells Lysed: Table 16 (repeat)
21NT.A2 = assay: as above; format: cell-based, human; settings: target 21NT.A2
PCl-13 = assay: as above; format: cell-based, human; settings: target PCl-13, CD8+ cells of donor stimulated with peptide pulsed DCs; for Raw Chromium Values: Table 13; for Percentage of Target Cells Lysed: Table 14
PCl-13 K104-V113-Ser = assay: as above; format: cell-based, human; settings: CD8+ cells of donor stimulated with peptide pulsed DCs; for Raw Chromium Values: Table 13, target PCl-13 K104-V113-Ser; for Percentage of Target Cells Lysed: Table 14, target Pcl-13 K104-V113-Ser
H16.A2 = assay: as above; format: cell-based, human; settings: for Raw Chromium Values: target H16.A2
K562 = assay: as above; format: cell-based, human; settings: for Raw Chromium Values: target K562
21NT = assay: as above; format: cell-based, human; settings: target 21NT, CD8+ cells of donor stimulated with peptide pulsed DCs; for Raw Chromium Values: Table 13; for Percentage of Target Cells Lysed: Table 14
Mel 1359 = assay: as above; format: cell-based, human; settings: target Mel 1359, effector to target 30:1, CD8+ cells 12 days in IL-2 after fourth stimulation; for Raw Chromium Values: Table 15 (repeat); for Percentage of Target Cells Lysed: Table 16 (repeat)
Mel F002 = assay: as above; format: cell-based, human; settings: for Raw Chromium Values: Table 15 (repeat), target Mel F002, effector to target 30:1, CD8+ cells 12 days in IL-2 after fourth stimulation; for Percentage of Target Cells Lysed: Table 16 (repeat), effector to target 30:1, CD8+ cells 12 days in IL-2 after fourth stimulation
Mel 501 = assay: as above; format: cell-based, human; settings: target Mel 501, effector to target 30:1, CD8+ cells 12 days in IL-2 after fourth stimulation; for Raw Chromium Values: Table 15 (repeat); for Percentage of Target Cells Lysed: Table 16 (repeat)
21NT.A2-Ser = assay: as above; format: cell-based, human; settings: target 21NT.A2-Ser, effector to target 30:1, CD8+ cells 12 days in IL-2 after fourth stimulation; for Raw Chromium Values: Table 15 (repeat); for Percentage of Target Cells Lysed: Table 16 (repeat)
B/C.N cells = assay: 51Cr release (CML), sensitization of B/C.N to lysis by tumor specific CTL; format: cell-based, mouse; settings: for sensitization of B/C.N cells to lysis by tumor-specific CTL: 4 hours
[1] = Table 13, CD8+ cells of donor stimulated with peptide pulsed DCs
[2] = Table 14, CD8+ cells of donor stimulated with peptide pulsed DCs
[3] = Table 15 (repeat), effector to target 30:1, CD8+ cells 12 days in IL-2 after fourth stimulation
[4] = Table 16 (repeat), effector to target 30:1, CD8+ cells 12 days in IL-2 after fourth stimulation

Substance	Raw Chromium Values (Mel 1700)	Percentage of Target Cells Lysed (Mel 1700)	Raw Chromium Values (21NT.A2; [1])	Percentage of Target Cells Lysed (21NT.A2; [2])	Raw Chromium Values (21NT.A2; [3])	Percentage of Target Cells Lysed (21NT.A2; [4])	Raw Chromium Values (PCl-13)	Percentage of Target Cells Lysed (PCl-13)	Raw Chromium Values (PCl-13 K104-V113-Ser)	Percentage of Target Cells Lysed (PCl-13 K104-V113-Ser)	Raw Chromium Values (H16.A2; [1])	Percentage of Target Cells Lysed (H16.A2; [2])	Raw Chromium Values (H16.A2; [3])	Percentage of Target Cells Lysed (H16.A2; [4])	Raw Chromium Values (K562; [1])	Percentage of Target Cells Lysed (K562; [2])	Raw Chromium Values (K562; [3])	Percentage of Target Cells Lysed (K562; [4])	Raw Chromium Values (21NT)	Percentage of Target Cells Lysed (21NT)	further results
K104-V113-cys-cys: K104-V113 peptide fragment of C35 containing a cysteinylated cysteine at amino acid position 112	1857	7.2%	1329	20.1%	2337	19.1%	486	−1.7%	1772	35.3%	440	0.2%	1024	5.8%	287	0.9%	1713	16.2%	171	−0.1%	Raw Chromium Values (Mel 1359): 2299; Percentage of Target Cells Lysed (Mel 1359): 2.5%; Raw Chromium Values (Mel F002): 1713; Percentage of Target Cells Lysed (Mel F002): 11.2%; Raw Chromium Values (Mel 501): 4474; Percentage of Target Cells Lysed (Mel 501): 21.2%; Raw Chromium Values (21NT.A2-Ser): 4474; Percentage of Target Cells Lysed (21NT.A2-Ser): 51.9%
L348-56 (I54): peptide of ribosomal protein L3, positions 48-56 with Ile 54; target epitope of tumor-specific CTL (GYKAGMIHI)																					sensitization of B/C.N cells to lysis by tumor-specific CTL (B/C.N cells): sensitized B/C.N to lysis; peptide concentration to sensitize targets to lysis by CTL (B/C.N cells; B/C.N targets): ≤ 10 nM
L345-54 (I54): peptide of ribosomal protein L3, positions 45-54 with Ile 54 (AFLGYKAGMI)																					sensitization of B/C.N cells to lysis by tumor-specific CTL (B/C.N cells): did not
KITNSRPPCV [K104-V113]	1964	8.9%	1429	22.4%	2753	24.6%	804	7.6%	1403	24.8%	483	0.9%	948	4.3%	311	2.0%	1156	8.0%	137	−1.5%	Raw Chromium Values (Mel 1359): 2758; Percentage of Target Cells Lysed (Mel 1359): 7.0%; Raw Chromium Values (Mel F002): 1156; Percentage of Target Cells Lysed (Mel F002): 15.7%; Raw Chromium Values (Mel 501): 3729; Percentage of Target Cells Lysed (Mel 501): 36.0%; Raw Chromium Values (21NT.A2-Ser): 3729; Percentage of Target Cells Lysed (21NT.A2-Ser): 41.5%
